The record followed here is US9364567B2, “Fragments of p97 and uses thereof” (biOasis Technologies, Inc., priority 2013, dated 2016).

Read-outs that look alike come from different tables or passages of the source.

The data set deals with in vitro model of the blood brain barrier (brain capillary endothelial cells co-cultured with glial cells). As to the kind of experiment: In vitro BBB model: passage of p97 tryptic digest peptides, LC-MS/MS peak areas in luminal and abluminal compartments. Format: in vitro ADME, rat. The procedure: Experiments were performed to evaluate the passage of mixtures of p97 peptide fragments across the blood-brain barrier (BBB) using a relevant and predictive BBB in vitro model (see Cecchelli et al., Adv. Drug Deliv. Rev. 36:165-178, 1999). The model utilizes brain capillary endothelial cells co-cultured with glial cells, to closely mimic the in vivo BBB (see Lundquist et al., Pharm. Res. 16:976-981, 2002).
To provide an in vitro system for studying brain capillary functions, a process of co-culture that closely mimics the in vivo BBB was established by culturing brain capillary endothelial cells on one side of a filter and supportive glial cells on the other side. Specifically, endothelial cells were cultured in the upper compartment on the filter and glial cells in the lower compartment on the plastic of a six-wells plate (see FIGS. 7 and 8). Under these conditions, endothelial cells retain the appropriate endothelial markers (e.g., factor VIII—related antigen, non-thrombogenic surface, production of prostacyclin, angiotensin-converting enzyme activity), and also retain the relevant characteristics of the BBB (e.g., presence of tight junctions, paucity of pinocytotic vesicles, monoamine oxidase activity, γ-glutamyltranspeptidase activity, P-glycoprotein activity, specific receptors for low density lipoproteins, and transferrin).
After removing the meninges, the brain tissue was forced gently through a nylon sieve. DMEM (Dulbecco's modified Eagle medium) supplemented with 10% (v/v) fetal calf serum (FCS, same as Fetal Bovine Serum: FBS), 2 mM glutamine, and 50 μg·ml^−1 of gentamycin was used for the dissociation of cerebral tissue and development of glial cells. […]
The glial cells were plated at a concentration of about 1.25×10^5 cells/ml in plastic six-well plates and incubated at 37° C. with 5% CO2. The medium was changed twice a week. […] Then, sub-clones of endothelial cells frozen at passage 3 were cultured on a 60-mm-diameter gelatin-coated Petri dish. Confluent endothelial cells were trypsinized and plated on the upper side of the filters at a density of 4×10^5 cells/ml. The medium used for the co-culture was DMEM supplemented with 10% (v/v) calf serum (CS) and 10% (v/v) horse serum (HS), 2 mM glutamine, and 50 μg/ml of gentamycin, and 1 ng/ml of basic fibroblast growth factor was added every other day.
On the day of the experiments, Ringer-HEPES (NaCl, 150 mM; KCl, 5.2 mM; CaCl2, 2.2 mM; MgCl2 6H20, 0.2 mM; NaHCO3, 6 mM; HEPES, 5 mM; glucose, 2.8 mM) was added to the lower compartment (abluminal side) of a six-well plate (3 mL per well). Filters with or without endothelial cells were washed with the Ringer-HEPES solution for 10 minutes at 37° C. to minimize traces of serum, and were then transferred to each well of the six-well plate. A volume of 1 mL Ringer-HEPES solution containing the peptide fragments in combination with Lucifer Yellow (20 μM) was placed in the upper compartment (luminal side) of the well.
Experiments were performed in triplicate with filters containing a confluent monolayer of endothelial cells (for BBB integrity testing or evaluation of peptide fragment passage), or in triplicate with empty filters coated only with collagen (filter test). Incubations were performed on a rocking platform for 120 minutes at 37° C.

Where [1] appears, read: tryptic peptides, abluminal compartment, 120 minutes, 3 micron pore size, LC-MS/MS peak area.
[2] abbreviates: tryptic peptides, abluminal compartment, 120 minutes, 4 micron pore size, LC-MS/MS peak area.
Where [3] appears, read: tryptic peptides, luminal compartment, 120 minutes, 3 micron pore size, LC-MS/MS peak area.
[4] abbreviates: tryptic peptides, luminal compartment, 120 minutes, 4 micron pore size, LC-MS/MS peak area.
Where [5] appears, read: tryptic peptides, abluminal/luminal peak area ratio at 120 minutes, 0.4 um insert.
[6] abbreviates: tryptic peptides, abluminal/luminal peak area ratio at 120 minutes, 3.0 um insert.

Consider “ADTDGGLIFR (listed as Homo sapiens) [tryptic peptide fragment of human p97]”, for which the “Abl 120/Lum120 peak area ratio, 0.4 um insert” value worked out at 1.95 and the “Abl 120/Lum120 peak area ratio, 3.0 um insert” value is 1.44.
With “ADTDGGLIFRLLNEGQR [tryptic peptide fragment of human p97]”, the “Ablum 120: Area” value came to 0.00E+00 under setting [1] and 5.53E+06 under setting [2]. In addition, the “Lum 120: Area” value is, setting by setting: under setting [3], 3.69E+07; under setting [4], 3.36E+07.
“ADVTEWR (listed as Homo sapiens) [tryptic peptide fragment of human p97]”: the “Abl 120/Lum120 peak area ratio, 0.4 um insert” value came to 12.76 and the “Abl 120/Lum120 peak area ratio, 3.0 um insert” value was 11.26.
Regarding “ADVTEWRQCHLAR (listed as Homo sapiens) [tryptic peptide fragment of human p97]”, the “Ablum 120: Area” value was determined as 4.26E+06 and the “Lum 120: Area” value came out at 0.00E+00.
Regarding “AQDLFGDDHNKNGFK [tryptic peptide fragment of human p97]”, the “Abl 120/Lum120 peak area ratio, 0.4 um insert” value under setting [5] is 5.45. Besides, the “Abl 120/Lum120 peak area ratio, 3.0 um insert” value under setting [6] is recorded as 1.68.
With “AVPVGEKTTYR (listed as Homo sapiens) [tryptic peptide fragment of human p97]”, the “Ablum 120: Area” value is on record as 0.00E+00 and the “Lum 120: Area” value worked out at 0.00E+00.
On to “AVSDYFGGSCVPGAGETSYSESLCR [tryptic peptide fragment of human p97]”, for which the “Ablum 120: Area” value is, setting by setting: under setting [1], 5.49E+08; under setting [2], 7.98E+08. In addition, the “Lum 120: Area” value reads like this: under setting [3], 5.51E+09; under setting [4], 5.03E+09.
Turning to “CGDMAVAFR (listed as Homo sapiens) [tryptic peptide fragment of human p97]”, the “Abl 120/Lum120 peak area ratio, 0.4 um insert” value was 2.26 and the “Abl 120/Lum120 peak area ratio, 3.0 um insert” value came out at 2.06.
For the substance “CGNMSEAFR (listed as Homo sapiens) [tryptic peptide fragment of human p97]”, the “Ablum 120: Area” value was 2.53E+07 and the “Lum 120: Area” value is 0.00E+00.
On the same counts, the results for “CLVENAGDVAFVR (listed as Homo sapiens) [tryptic peptide fragment of human p97]” are 1.30E+08 and 5.49E+08.
Turning to “CVGNSQERYYGYR (listed as Homo sapiens) [tryptic peptide fragment of human p97]”, the “Lum 120: Area” value was 0.00E+00.
“DLLFKDSTSELVPIATQTYEAWLGHEYLHAMK [tryptic peptide fragment of human p97]”: under setting [2], the “Ablum 120: Area” value stood at 0.00E+00. The “Lum 120: Area” value under setting [4] worked out at 3.76E+07.
In the case of “DSSHAFTLDELR (listed as Homo sapiens) [tryptic peptide fragment of human p97]”, the “Abl 120/Lum120 peak area ratio, 0.4 um insert” value amounted to 0.98.
“DSSHAFTLDELRGK [tryptic peptide fragment of human p97]”: the “Ablum 120: Area” value by setting is: under setting [1], 1.99E+07; under setting [2], 2.37E+07. In addition, the “Lum 120: Area” value under setting [3] was 0.00E+00 and the “Lum 120: Area” value under setting [4] worked out at 0.00E+00.
For “EHGLKPVVGEVYDQEVGTSYYAVAVVRR [tryptic peptide fragment of human p97]”, the “Ablum 120: Area” value under setting [1] came out at 1.70E+07 and the “Ablum 120: Area” value under setting [2] was determined as 2.62E+07. Besides, the “Lum 120: Area” value runs as follows: under setting [3], 0.00E+00; under setting [4], 0.00E+00.
Turning to “GDSSGEGVCDKSPLER [tryptic peptide fragment of human p97]”, the “Ablum 120: Area” value under setting [1] was 1.93E+09 and the “Ablum 120: Area” value under setting [2] is given as 2.34E+09. Besides, under setting [5], the “Abl 120/Lum120 peak area ratio, 0.4 um insert” value was 4.93. Further, the “Abl 120/Lum120 peak area ratio, 3.0 um insert” value under setting [6] is recorded as 3.80. The “Lum 120: Area” value reads like this: under setting [3], 5.08E+08; under setting [4], 4.75E+08.
On to “HSTVLENTDGK (listed as Homo sapiens) [tryptic peptide fragment of human p97]”, for which the “Ablum 120: Area” value is given as 0.00E+00.
As to “IQAEQVDAVTLSGEDIYTAGK [tryptic peptide fragment of human p97]”, the “Ablum 120: Area” value under setting [1] was determined as 0.00E+00 and the “Ablum 120: Area” value under setting [2] came to 0.00E+00. The “Lum 120: Area” value under setting [3] came out at 3.48E+06.
Regarding “LCRGDSSGEGVCDK [tryptic peptide fragment of human p97]”, the “Ablum 120: Area” value under setting [1] worked out at 2.64E+05 and the “Ablum 120: Area” value under setting [2] is reported as 5.97E+05. In addition, the “Abl 120/Lum120 peak area ratio, 0.4 um insert” value under setting [5] came out at 2.45. Moreover, the “Abl 120/Lum120 peak area ratio, 3.0 um insert” value under setting [6] turned out to be 1.21. For the same substance, the “Lum 120: Area” value by setting is: under setting [3], 2.17E+05; under setting [4], 2.44E+05.
In the case of “LKPEIQCVSAK (listed as Homo sapiens) [tryptic peptide fragment of human p97]”, the “Abl 120/Lum120 peak area ratio, 0.4 um insert” value is on record as 4.81 and the “Abl 120/Lum120 peak area ratio, 3.0 um insert” value is 4.37.
Take “LLNEGQR (listed as Homo sapiens) [tryptic peptide fragment of human p97]”: the “Ablum 120: Area” value is given as 0.00E+00.
Take “MFDSSNYHGQDLLFKDATVR [tryptic peptide fragment of human p97]”: the “Ablum 120: Area” value under setting [2] is given as 0.00E+00. The “Lum 120: Area” value under setting [4] is recorded as 0.00E+00.
As to “NYPSSLCALCVGDEQGR [tryptic peptide fragment of human p97]”, the “Ablum 120: Area” value under setting [1] worked out at 7.34E+07 and the “Ablum 120: Area” value under setting [2] was 1.09E+08. Also, the “Lum 120: Area” value runs as follows: under setting [3], 6.15E+08; under setting [4], 5.52E+08.
For the substance “RSSHVTIDTLK (listed as Homo sapiens) [tryptic peptide fragment of human p97]”, the “Abl 120/Lum120 peak area ratio, 0.4 um insert” value was 2.06 and the “Abl 120/Lum120 peak area ratio, 3.0 um insert” value is listed as 1.23.
On the same counts, the results for “SEDYELLCPNGAR (listed as Homo sapiens) [tryptic peptide fragment of human p97]” are 13.05 and 8.38.
On the same counts, the results for “SSHVTIDTLKGVK (listed as Homo sapiens) [tryptic peptide fragment of human p97]” are 2.42 and 2.38.
For “TVGWNVPVGYLVESGR [tryptic peptide fragment of human p97]”, the “Ablum 120: Area” value by setting is: under setting [1], 0.00E+00; under setting [2], 1.38E+07. In addition, the “Lum 120: Area” value reads like this: under setting [3], 9.38E+07; under setting [4], 1.01E+08.
As to VPAHAWVR, the “Abl 120/Lum120 peak area ratio, 0.4 um insert” value is listed as 3.32 and the “Abl 120/Lum120 peak area ratio, 3.0 um insert” value is given as 3.56.
Regarding “WCATSDPEQHK (listed as Homo sapiens) [tryptic peptide fragment of human p97]”, the “Abl 120/Lum120 peak area ratio, 0.4 um insert” value amounted to 8.92 and the “Abl 120/Lum120 peak area ratio, 3.0 um insert” value was determined as 7.41.
“WCVLSTPEIQK (listed as Homo sapiens) [tryptic peptide fragment of human p97]”: the “Lum 120: Area” value stood at 0.00E+00.
For “YYDYSGAFR (listed as Homo sapiens) [tryptic peptide fragment of human p97]”, the “Abl 120/Lum120 peak area ratio, 0.4 um insert” value is 7.40.
